Experimental findings from patent publication US8518952B2, “6 substituted 2-heterocyclylamino pyrazine compounds as CHK-1 inhibitors” (Pfizer Inc., priority 2008, dated 2013) are described below.

Like-named read-outs stand apart in the source and are kept apart here. Some results are limits rather than exact numbers.

A word on the Ki: it is the equilibrium dissociation constant of an inhibitor or competing ligand from its target. Broadly, the EC50 is the midpoint of the concentration-response curve.

In one test the target is T1, CHK1 (kinase domain) (Homo sapiens, UniProt O14757).
T1 construct: a solution containing 1 nM of CHK1 (kinase domain)
T1 sequence (O14757 9-265 limits assumed): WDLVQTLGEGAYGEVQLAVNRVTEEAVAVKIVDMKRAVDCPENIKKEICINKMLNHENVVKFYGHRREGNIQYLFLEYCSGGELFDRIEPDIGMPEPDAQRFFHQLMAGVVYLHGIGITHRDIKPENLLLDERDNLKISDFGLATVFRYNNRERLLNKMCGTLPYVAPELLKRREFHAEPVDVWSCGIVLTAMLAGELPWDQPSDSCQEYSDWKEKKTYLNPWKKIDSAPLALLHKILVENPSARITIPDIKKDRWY
As to the kind of experiment: CHK1 Ki determination, spectrophotometric coupled (pyruvate kinase/lactate dehydrogenase) assay. It counts as biochemical. The settings on record: CHK-1 kinase domain; for Ki: 150 uM ATP, 125 uM Syntide 2; for percent inhibition (where no Ki data is available): inhibitor concentration not given. In a few lines: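 Ki values, or % inhibition where no Ki was obtained, come from a tight-binding fit that uses active enzyme concentration and the ATP Km. Rates were followed as NADH loss at 340 nm, with ADP production coupled via pyruvate kinase and lactate dehydrogenase. Reactions with ATP (150 uM) and Syntide 2 (125 uM) were started after the CHK1 kinase domain had stood with inhibitor for 15 min.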

The subject of another test is Mia Paca-2 cells. Put plainly: Histone H3 (Ser10) phosphorylation ELISA, abrogation of camptothecin-induced G2 arrest (CHK-1 cellular assay). The settings on record: Homo sapiens, camptothecin 8 hrs, then compound with nocodozole 16 hours. It counts as cell-based. The method, then: The Histone H3 phosphorylation ELISA assay detects cells entering mitosis and represents the primary in vitro cell-based assay used to measure the cellular potency of compounds in abrogating the G2 check point induced by DNA damage in HeLa cells or MiaPaCa cells. The candidate substances were assayed for potency in their ability to inhibit camptothecin-induced G2 arrest, as measured by an increase in Histone H3 phosphorylation on Ser10, a marker of entry into mitosis.
The PathScan Phospho-Histone H3 (Ser10) Sandwich ELISA kit was used (Cell Signaling, #7155) and the assay was performed according to manufacturer recommendations. Tissue culture plates were seeded with HeLa cells or MiaPaCa Cells and allowed to attach overnight. The cells were then treated with camptothecin to induce DNA damage for 8 hrs. Candidate substances or diluent were then added in the presence of nocodozole for 16 hours. Cells were then lysed with buffer from Assay Designs (#80-1114) supplemented with protease inhibitors and frozen overnight. The fresh whole cell lysates were then thawed and added to the ELISA plate with shaking for 3 hours. Between all subsequent steps plates were washed 4 times with PBST. Biotinylated phospho Histone H3 (ser10) detection antibody was added for 1 hour, followed by addition of horseradish peroxidase-linked streptavidin secondary antibody for 1 hour. Color development of the antibody was performed with addition of TMB substrate and incubation for 2 minutes on a plate shaker. Stop solution was added and plates were read with absorbance at 450 nm on a spectrophotometer. EC50 values were calculated by sigmoid curve fitting using a four-parameter analysis.
Under the “Ki” column, data entries in the format of “%” are percent inhibition data where no Ki data is available. Data entry under the “EC50” column with an * are data obtained using Mia Paca-2 cells rather than HeLa cells. Data is not available where noted as n/a.

A further test deals with HeLa cells. The description is as above. It counts as cell-based. In a few lines: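 HeLa cells, or MiaPaCa-2 where marked, received camptothecin for 8 h, then compound with nocodazole for 16 h. Ser10-phosphorylated histone H3 in lysates was measured by ELISA with a biotinylated antibody, streptavidin-HRP and TMB. EC50 came from four-parameter sigmoid fits.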
[1] abbreviates: Mia Paca-2 cells (entries marked *).
The mark [2] stands for this setting: Homo sapiens, HeLa, HeLa cells, camptothecin 8 hrs, then compound with nocodozole 16 hours, read-out: EC50.
Setting [3] is: HeLa cells, camptothecin 8 hrs, then compound with nocodozole 16 hours, read-out: EC50.

The molecule `NC(=O)c1ccn2c(-c3cncc(N[C@@H]4CCCNC4)n3)cnc2c1` [Example 86, 3-{6-[(3R)-piperidin-3-ylamino]pyrazin-2-yl}imidazo[1,2-a]pyridine-7-carboxamide] showed a Ki at CHK1 (kinase domain) of 1.68 nM. For the same molecule, the EC50 with Mia Paca-2 cells (MIA PaCa-2, Mia Paca-2 cells (entries marked *)) was 295 nM.

In the case of `c1ccn2c(-c3cncc(N[C@H]4CNC[C@H]4C4CC4)n3)cnc2c1` [Example 197, N-[(3R,4R)-4-cyclopropylpyrrolidin-3-yl]-6-(imidazo[1,2-a]pyridin-3-yl)pyrazin-2-amine], the affinity on CHK1 (kinase domain) corresponds to a Ki of 3.05 nM. In addition, the EC50 in the test with Mia Paca-2 cells (setting [1]) was 4.82 nM.

The molecule `N#Cc1ncc(N[C@@H]2CCNC2)nc1-c1cnc2ccccn12` [Example 267, 3-(imidazo[1,2-a]pyridin-3-yl)-5-[(3R)-pyrrolidin-3-ylamino]pyrazine-2-carbonitrile] showed an EC50 with Mia Paca-2 cells (setting [1]) of 10000 nM.

As to `Cc1cn2c(-c3cncc(N[C@H]4CCCN[C@H]4C)n3)cnc2s1` [Example 175, 6-(2-methylimidazo[2,1-b][1,3]thiazol-5-yl)-N-[(2S,3S)-2-methylpiperidin-3-yl]pyrazin-2-amine], the Ki at CHK1 (kinase domain) was 13.7 nM. Moreover, the EC50 in the test on HeLa cells (setting [2]) was found to be 197 nM. In the test with Mia Paca-2 cells (setting [1]), `N#Cc1ccn2c(-c3cncc(N[C@@H]4C[C@@H]5CN[C@H]4C5)n3)cnc2c1` [Example 162, 3-{6-[(1S,4R,6R)-2-azabicyclo[2.2.1]hept-6-ylamino]pyrazin-2-yl}imidazo[1,2-a]pyridine-7-carbonitrile] showed an EC50 of 321 nM.

Molecule `FC(F)(F)c1ccc2ncc(-c3cncc(N[C@@H]4CCCNC4)n3)n2c1` [Example 39, N-[(3R)-piperidin-3-yl]-6-[6-(trifluoromethyl)imidazo[1,2-a]pyridin-3-yl]pyrazin-2-amine] displayed a Ki on CHK1 (kinase domain) of 17 nM. Further, in the test with HeLa cells (setting [2]), the EC50 worked out at 677 nM. In the case of `CC(C)c1ccc2ncc(-c3cncc(N[C@@H]4CCNC4)n3)n2c1` [Example 57, 6-(6-Isopropylimidazo[1,2-a]pyridin-3-yl)-N-[(3R)-pyrrolidin-3-yl]pyrazin-2-amine], on CHK1 (kinase domain), the Ki worked out at 6.09 nM. Besides, the EC50 in the test on HeLa cells (setting [2]) was 373 nM. For `C[C@@H]1NCCC[C@H]1Nc1cncc(-c2cnc3ccccn23)n1` [Example 101, 6-imidazo[1,2-a]pyridin-3-yl-N-[(2S,3R)-2-methylpiperidin-3-yl]pyrazin-2-amine], in that order: 55.4 nM and ≥ 10000 nM. For the molecule `C[C@@H]1CNC[C@@H]1Nc1cncc(-c2cnn3cc(F)ccc23)n1` [Example 202, 6-(6-fluoropyrazolo[1,5-a]pyridin-3-yl)-N-[(3R,4R)-4-methylpyrrolidin-3-yl]pyrazin-2-amine], the affinity on CHK1 (kinase domain), expressed as Ki, was 18.4 nM. The EC50 with HeLa cells (setting [2]) amounted to 19.4 nM. Turning to `c1ccc2c(c1)ncn2-c1cncc(N[C@@H]2CCCNC2)n1` [Example 1, 6-(1H-benzimidazol-1-yl)-N-[(3R)-piperidin-3-yl]pyrazin-2-amine], the Ki on CHK1 (kinase domain) was determined as 13.2 nM. The same molecule registered an EC50 in the test with HeLa cells (Homo sapiens, HeLa) of 70.3 nM.

For the molecule `Cc1cn2c(-c3cncc(N[C@@H]4CC[C@H](C)NC4)n3)cnc2s1` (relative stereo) [Example 62, Cis 6-(2-Methylimidazo[2,1-b][1,3]thiazol-5-yl)-N-(6-methylpiperidin-3-yl)pyrazin-2-amine], the affinity at CHK1 (kinase domain) corresponds to a Ki of 73.5 nM. Further, the concentration for a half-maximal effect (EC50) in the test with HeLa cells (setting [2]) turned out to be 694 nM.

As for `Clc1ccc2c(-c3cncc(N[C@@H]4CCNC4)n3)cnn2c1` [Example 113, 6-(6-chloropyrazolo[1,5-a]pyridin-3-yl)-N-[(3R)-pyrrolidin-3-yl]pyrazin-2-amine], the “percent inhibition (where no Ki data is available)” value on CHK1 (kinase domain) was 95.5%^. Moreover, the EC50 with HeLa cells (setting [2]) is 103 nM. Consider `Cc1cn2c(-c3cncc(N[C@@H]4CCCN[C@H]4C)n3)cnc2s1` [Example 97, 6-(2-methylimidazo[2,1-b][1,3]thiazol-5-yl)-N-[(2S,3R)-2-methylpiperidin-3-yl]pyrazin-2-amine], for which, at CHK1 (kinase domain), the Ki is 8.62 nM. For the same molecule, the EC50 in the test on HeLa cells (setting [3]) is 151 nM. On CHK1 (kinase domain), `CCc1cn2c(-c3cncc(N[C@H]4CNC[C@H]4CF)n3)cnc2s1` [Example 185, 6-(2-ethylimidazo[2,1-b][1,3]thiazol-5-yl)-N-[(3R,4R)-4-(fluoromethyl)pyrrolidin-3-yl]pyrazin-2-amine] registered an inhibition constant Ki of 5.4 nM. Further, the EC50 in the test on HeLa cells (setting [2]) was found to be 66.4 nM. In the same order, the values of `FC(F)[C@@H]1C[C@@H](Nc2cncc(-c3cnc4cc(C(F)(F)F)ccn34)n2)CN1` [Example 89, N-[(3R,5S)-5-(difluoromethyl)pyrrolidin-3-yl]-6-[7-(trifluoromethyl)imidazo[1,2-a]pyridin-3-yl]pyrazin-2-amine] are 261 nM and ≥ 10000 nM. Molecule `Cc1cn2c(-c3cncc(N[C@@H]4CNC[C@@H]4C)n3)cnc2s1` [Example 140, 6-(2-methylimidazo[2,1-b][1,3]thiazol-5-yl)-N-[(3S,4S)-4-methylpyrrolidin-3-yl]pyrazin-2-amine] gave a Ki on CHK1 (kinase domain) of 1.07 nM. The EC50 in the test on HeLa cells (setting [2]) worked out at 19.2 nM. Take `CC(C)Oc1ccc2ncn(-c3cncc(N[C@@H]4CCNC4)n3)c2c1` [Example 15, 6-[6-(propan-2-yloxy)-1H-benzimidazol-1-yl]-N-[(3R)-pyrrolidin-3-yl]pyrazin-2-amine]: on CHK1 (kinase domain), the “percent inhibition (where no Ki data is available)” value is given as 43.5%^. For the same molecule, the EC50 with HeLa cells (setting [2]) was ≥ 10000 nM. For `CCc1ccn2c(-c3cncc(N[C@@H]4CCCNC4)n3)cnc2c1` [Example 42, 6-(7-Ethylimidazo[1,2-a]pyridin-3-yl)-N-[(3R)-piperidin-3-yl]pyrazin-2-amine], the affinity on CHK1 (kinase domain), expressed as Ki, was 7 nM. Moreover, in the test on HeLa cells (setting [2]), the EC50 was 29.3 nM. Take `CCc1cn2c(-c3cncc(N[C@@H]4CCCN[C@@H]4C)n3)cnc2s1` [Example 166, 6-(2-ethylimidazo[2,1-b][1,3]thiazol-5-yl)-N-[(2R,3R)-2-methylpiperidin-3-yl]pyrazin-2-amine]: the affinity on CHK1 (kinase domain), expressed as Ki, was 4.79 nM. Also, the 50% effective concentration (EC50) in the test with HeLa cells (setting [3]) turned out to be 123 nM. Consider `C[C@H]1CC[C@@H](Nc2cncc(-c3cnc4ccccn34)n2)CN1` [Example 30, 6-imidazo[1,2-a]pyridin-3-yl-N-[(3R,6S)-6-methylpiperidin-3-yl]pyrazin-2-amine], for which the Ki on CHK1 (kinase domain) stood at 147 nM. Besides, the EC50 with HeLa cells (setting [2]) is 634 nM. In the case of `Fc1ccc2ncc(-c3cncc(N[C@H]4CNC[C@H]4F)n3)n2c1` [Example 90, 6-(6-fluoroimidazo[1,2-a]pyridin-3-yl)-N-[(3S,4R)-4-fluoropyrrolidin-3-yl]pyrazin-2-amine], the Ki on CHK1 (kinase domain) was 70.5 nM. The EC50 in the test with HeLa cells (setting [2]) was ≥ 10000 nM. At CHK1 (kinase domain), `Cc1ccc2ncc(-c3cncc(N[C@@H]4CCNC4)n3)n2c1` [Example 50, 6-(6-Methylimidazo[1,2-a]pyridin-3-yl)-N-[(3R)-pyrrolidin-3-yl]pyrazin-2-amine] registered a Ki of 17.4 nM. Also, the EC50 with HeLa cells (setting [2]) worked out at 148 nM. `FC1(F)CCNCC1Nc1cncc(-c2cnc3ccccn23)n1` (centres unmarked) [Example 11, N-(4,4-difluoropiperidin-3-yl)-6-(imidazo[1,2-a]pyridin-3-yl)pyrazin-2-amine]: the “percent inhibition (where no Ki data is available)” value at CHK1 (kinase domain) worked out at 101%^. Moreover, in the test with HeLa cells (setting [2]), the EC50 was 62.1 nM. Regarding `c1cnn2c(-c3cncc(N[C@@H]4CCCNC4)n3)cnc2c1` [Example 60, 6-Imidazo[1,2-b]pyridazin-3-yl-N-[(3R)-piperidin-3-yl]pyrazin-2-amine], on CHK1 (kinase domain), affinity was put at a Ki of 1000 nM. In addition, in the test on HeLa cells (setting [2]), the EC50 is 8320 nM. Molecule `C[C@@H]1C[C@@H](Nc2cncc(-c3cnn4cc(Cl)ccc34)n2)CN1` [Example 143, 6-(6-chloropyrazolo[1,5-a]pyridin-3-yl)-N-[(3R,5R)-5-methylpyrrolidin-3-yl]pyrazin-2-amine] registered a Ki at CHK1 (kinase domain) of 1.11 nM. Also, the EC50 in the test on HeLa cells (setting [2]) came to 119 nM. `FC[C@@H]1C[C@@H](Nc2cncc(-c3cnc4cc(C(F)(F)F)ccn34)n2)CN1` [Example 78, N-[(3R,5S)-5-(fluoromethyl)pyrrolidin-3-yl]-6-[7-(trifluoromethyl)imidazo[1,2-a]pyridin-3-yl]pyrazin-2-amine]: on CHK1 (kinase domain), the Ki is 37.1 nM. Moreover, the EC50 in the test on HeLa cells (setting [2]) is 3560 nM.
